Literature values in patent publication US8563554B2, “Deuterated pyrazinoisoquinoline compounds” (Concert Pharmaceuticals, Inc., priority 2009, dated 2013).

Structure (SMILES): O=C(C1CCCCC1)N1CC(=O)N2CCc3ccccc3C2C1 (centres unmarked) [praziquantel, 2-(cyclohexylcarbonyl)-1,2,3,6,7,11b-hexahydro-4H-pyrazino[2,1-a]isoquinolin-4-one]
- dose excreted in the kidneys (share of a dose of praziquantel): Approximately 80%
- excreted in the form of metabolites (share of the renally excreted dose present as metabolites): > 99%
